Laboratory results reported in PubChem BioAssay (NCI).
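Here, GI50 denotes the concentration required for 50% inhibition of growth. TGI marks complete inhibition of growth.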

Columns and labels:
Assay in all cases: growth of human tumour cells (NCI), 384-well format
SN12C renal = system: SN12C renal
MALME-3M melanoma = system: MALME-3M melanoma
OVCAR-8 ovarian = system: OVCAR-8 ovarian
SNB-19 CNS = system: SNB-19 CNS
RPMI-8226 leukemia = system: RPMI-8226 leukemia
NCI-H23 lung = system: NCI-H23 lung
SK-MEL-5 melanoma = system: SK-MEL-5 melanoma
A498 renal = system: A498 renal
SK-OV-3 ovarian = system: SK-OV-3 ovarian
SF-295 CNS = system: SF-295 CNS
MDA-MB-435 melanoma = system: MDA-MB-435 melanoma
T-47D breast = system: T-47D breast
CCRF-CEM leukemia = system: CCRF-CEM leukemia
OVCAR-5 ovarian = system: OVCAR-5 ovarian
TK-10 renal = system: TK-10 renal
HL-60(TB) leukemia = system: HL-60(TB) leukemia
HCT-116 colon = system: HCT-116 colon
K-562 leukemia = system: K-562 leukemia
MDA-MB-468 breast = system: MDA-MB-468 breast
HCC-2998 colon = system: HCC-2998 colon
BT-549 breast = system: BT-549 breast
NCI-H460 NSCLC = system: NCI-H460 NSCLC
NCI-H322M lung = system: NCI-H322M lung
ACHN renal = system: ACHN renal
SR leukemia = system: SR leukemia
U251 glioblastoma = system: U251 glioblastoma
HOP-92 NSCLC = system: HOP-92 NSCLC
NCI/ADR-RES ovarian = system: NCI/ADR-RES ovarian
MCF7 breast = system: MCF7 breast
PC-3 prostate = system: PC-3 prostate
LOX IMVI melanoma = system: LOX IMVI melanoma
SK-MEL-2 melanoma = system: SK-MEL-2 melanoma
KM12 colon = system: KM12 colon
HOP-62 NSCLC = system: HOP-62 NSCLC
NCI-H226 lung = system: NCI-H226 lung
COLO 205 colon = system: COLO 205 colon
UACC-62 melanoma = system: UACC-62 melanoma
DU-145 prostate = system: DU-145 prostate
IGROV1 ovarian = system: IGROV1 ovarian
SF-268 CNS = system: SF-268 CNS
MOLT-4 leukemia = system: MOLT-4 leukemia
SW-620 colon = system: SW-620 colon
SF-539 CNS = system: SF-539 CNS
HCT-15 colon = system: HCT-15 colon
CAKI-1 renal = system: CAKI-1 renal
A549 NSCLC = system: A549 NSCLC
OVCAR-3 ovarian = system: OVCAR-3 ovarian
HT29 colon = system: HT29 colon
MDA-MB-231 breast = system: MDA-MB-231 breast
RXF 393 renal = system: RXF 393 renal
M14 melanoma = system: M14 melanoma
SK-MEL-28 melanoma = system: SK-MEL-28 melanoma
UO-31 renal = system: UO-31 renal
UACC-257 melanoma = system: UACC-257 melanoma
786-0 renal = system: 786-0 renal
NCI-H522 lung = system: NCI-H522 lung
OVCAR-4 ovarian = system: OVCAR-4 ovarian

`C#Cc1c(F)ccc2cc(O)cc(-c3ncc4c(N5CC6CCC(C5)N6)nc(OC[C@@]56CCCN5C[C@H](F)C6)nc4c3F)c12` showed a GI50 (SN12C renal) of 11.5 µM, a TGI (SN12C renal) of 23.7 µM and a GI50 (MALME-3M melanoma) of 1.99 µM. The TGI (MALME-3M melanoma) was 3.43 µM, the GI50 (OVCAR-8 ovarian) was 12.2 µM and the TGI (OVCAR-8 ovarian) was 24.7 µM. For the same compound, the GI50 (SNB-19 CNS) was 10.8 µM, the TGI (SNB-19 CNS) was 22.8 µM and the GI50 (RPMI-8226 leukemia) was 0.0774 µM. It also gave a TGI (RPMI-8226 leukemia) of 0.845 µM, a GI50 (NCI-H23 lung) of 0.568 µM and a TGI (NCI-H23 lung) of 3.51 µM. The GI50 (SK-MEL-5 melanoma) was 1.67 µM, the TGI (SK-MEL-5 melanoma) was 3.66 µM and the GI50 (A498 renal) was 10.5 µM. The TGI (A498 renal) was 22.4 µM, the GI50 (SK-OV-3 ovarian) was 2.36 µM and the TGI (SK-OV-3 ovarian) was 5.59 µM. For the same compound, the GI50 (SF-295 CNS) was 17.7 µM, the TGI (SF-295 CNS) was 31.6 µM and the GI50 (MDA-MB-435 melanoma) was 1.93 µM. The TGI (MDA-MB-435 melanoma) was 3.4 µM, the GI50 (T-47D breast) was 2.03 µM and the TGI (T-47D breast) was 5.32 µM. It also gave a GI50 (CCRF-CEM leukemia) of 1.25 µM, a TGI (CCRF-CEM leukemia) of 2.51 µM and a GI50 (OVCAR-5 ovarian) of 3.14 µM. For the same compound, the TGI (OVCAR-5 ovarian) was 10.5 µM, the GI50 (TK-10 renal) was 17.3 µM and the TGI (TK-10 renal) was 31.1 µM. The GI50 (HL-60(TB) leukemia) was 1.87 µM, the TGI (HL-60(TB) leukemia) was 3.28 µM and the GI50 (HCT-116 colon) was 1.37 µM. For the same compound, the TGI (HCT-116 colon) was 2.9 µM, the GI50 (K-562 leukemia) was 3.58 µM and the TGI (K-562 leukemia) was 9.9 µM. It also gave a GI50 (MDA-MB-468 breast) of 2.08 µM, a TGI (MDA-MB-468 breast) of 3.55 µM and a GI50 (HCC-2998 colon) of 0.303 µM. For the same compound, the TGI (HCC-2998 colon) was 1.67 µM, the GI50 (BT-549 breast) was 1.86 µM and the TGI (BT-549 breast) was 3.47 µM. It also gave a GI50 (NCI-H460 NSCLC) of 1.51 µM, a TGI (NCI-H460 NSCLC) of 5.97 µM and a GI50 (NCI-H322M lung) of 6.12 µM. The TGI (NCI-H322M lung) was 19.3 µM, the GI50 (ACHN renal) was 16.1 µM and the TGI (ACHN renal) was 29.7 µM. The GI50 (SR leukemia) was 1.06 µM, the TGI (SR leukemia) was 2.25 µM and the GI50 (U251 glioblastoma) was 1.83 µM. It also gave a TGI (U251 glioblastoma) of 3.36 µM, a GI50 (HOP-92 NSCLC) of 2.03 µM and a TGI (HOP-92 NSCLC) of 4.02 µM. The GI50 (NCI/ADR-RES ovarian) was 85.7 µM, the TGI (NCI/ADR-RES ovarian) was greater than 100 µM and the GI50 (MCF7 breast) was 2.36 µM. For the same compound, the TGI (MCF7 breast) was 5.28 µM, the GI50 (PC-3 prostate) was 9.06 µM and the TGI (PC-3 prostate) was 21 µM. The GI50 (LOX IMVI melanoma) was 2.23 µM, the TGI (LOX IMVI melanoma) was 3.7 µM and the GI50 (SK-MEL-2 melanoma) was 1.85 µM. It also gave a TGI (SK-MEL-2 melanoma) of 3.26 µM, a GI50 (KM12 colon) of 2.07 µM and a TGI (KM12 colon) of 5.31 µM. It also gave a GI50 (HOP-62 NSCLC) of 0.853 µM, a TGI (HOP-62 NSCLC) of 10.2 µM and a GI50 (NCI-H226 lung) of 10.7 µM. For the same compound, the TGI (NCI-H226 lung) was 22.6 µM, the GI50 (COLO 205 colon) was 2.02 µM and the TGI (COLO 205 colon) was 3.94 µM. The GI50 (UACC-62 melanoma) was 1.78 µM, the TGI (UACC-62 melanoma) was 3.18 µM and the GI50 (DU-145 prostate) was 13.7 µM. For the same compound, the TGI (DU-145 prostate) was 26.6 µM, the GI50 (IGROV1 ovarian) was 12.4 µM and the TGI (IGROV1 ovarian) was 24.9 µM. The GI50 (SF-268 CNS) was 1.99 µM, the TGI (SF-268 CNS) was 4.34 µM and the GI50 (MOLT-4 leukemia) was 1.9 µM. The TGI (MOLT-4 leukemia) was 3.32 µM, the GI50 (SW-620 colon) was 0.375 µM and the TGI (SW-620 colon) was 1.61 µM. For the same compound, the GI50 (SF-539 CNS) was 1.92 µM, the TGI (SF-539 CNS) was 3.52 µM and the GI50 (HCT-15 colon) was 14.6 µM. For the same compound, the TGI (HCT-15 colon) was 27.8 µM, the GI50 (CAKI-1 renal) was 10.9 µM and the TGI (CAKI-1 renal) was 22.9 µM. The GI50 (A549 NSCLC) was 5.54 µM, the TGI (A549 NSCLC) was 18.5 µM and the GI50 (OVCAR-3 ovarian) was 4.45 µM. The TGI (OVCAR-3 ovarian) was 16.6 µM, the GI50 (HT29 colon) was 2.02 µM and the TGI (HT29 colon) was 4.05 µM. The GI50 (MDA-MB-231 breast) was 1.94 µM, the TGI (MDA-MB-231 breast) was 4 µM and the GI50 (RXF 393 renal) was 2.41 µM. For the same compound, the TGI (RXF 393 renal) was 6.19 µM, the GI50 (M14 melanoma) was 1.78 µM and the TGI (M14 melanoma) was 3.27 µM. It also gave a GI50 (SK-MEL-28 melanoma) of 1.87 µM, a TGI (SK-MEL-28 melanoma) of 3.29 µM and a GI50 (UO-31 renal) of 15.8 µM. For the same compound, the TGI (UO-31 renal) was 29.3 µM, the GI50 (UACC-257 melanoma) was 1.77 µM and the TGI (UACC-257 melanoma) was 3.17 µM. For the same compound, the GI50 ([…]-0 renal) was 12.4 µM, the TGI (786-0 renal) was 24.9 µM and the GI50 (NCI-H522 lung) was 1.83 µM. It also gave a TGI (NCI-H522 lung) of 3.63 µM, a GI50 (OVCAR-4 ovarian) of 7.07 µM and a TGI (OVCAR-4 ovarian) of 19.7 µM.
